{"source": "ChEMBL document CHEMBL3997813", "about": "“Selective inhibition of monoamine oxidase A by purpurin, an anthraquinone” (Bioorg Med Chem Lett, 2017)", "key": {"[1]": {"molecular_target": "T1, Amine oxidase [flavin-containing] A (Homo sapiens, UniProt P21397)", "T1 sequence (P21397 whole entry)": "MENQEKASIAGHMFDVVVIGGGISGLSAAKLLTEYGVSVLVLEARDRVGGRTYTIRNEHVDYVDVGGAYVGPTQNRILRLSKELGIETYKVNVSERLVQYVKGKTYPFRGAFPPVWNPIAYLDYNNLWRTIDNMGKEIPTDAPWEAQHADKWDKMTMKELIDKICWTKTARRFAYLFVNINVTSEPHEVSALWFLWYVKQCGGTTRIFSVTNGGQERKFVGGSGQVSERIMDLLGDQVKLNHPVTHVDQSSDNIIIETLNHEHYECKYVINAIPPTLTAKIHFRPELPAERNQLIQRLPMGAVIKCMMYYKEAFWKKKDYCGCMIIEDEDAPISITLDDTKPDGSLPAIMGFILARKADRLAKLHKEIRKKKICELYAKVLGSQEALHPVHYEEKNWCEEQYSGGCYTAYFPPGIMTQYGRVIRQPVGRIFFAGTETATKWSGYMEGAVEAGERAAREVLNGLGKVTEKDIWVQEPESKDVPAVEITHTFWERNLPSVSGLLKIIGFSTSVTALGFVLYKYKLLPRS", "assay": "Competitive inhibition of recombinant human MAO-A using varying levels of kynuramine substrate after 5 mins by Lineweaver-Burk plot analysis"}, "[2]": {"molecular_target": "T1, Amine oxidase [flavin-containing] A", "assay": "Inhibition of recombinant human liver MAO-A expressed in yeast using kynuramine as substrate preincubated for 3 mins followed by substrate addition by double reciprocal plot analysis"}, "[3]": {"molecular_target": "T1, Amine oxidase [flavin-containing] A", "assay": "Inhibition of recombinant human MAO-A using kynuramine as substrate incubated for 10 mins"}, "[4]": {"molecular_target": "T2, Amine oxidase [flavin-containing] B (Homo sapiens, UniProt P27338)", "T2 sequence (P27338 whole entry)": "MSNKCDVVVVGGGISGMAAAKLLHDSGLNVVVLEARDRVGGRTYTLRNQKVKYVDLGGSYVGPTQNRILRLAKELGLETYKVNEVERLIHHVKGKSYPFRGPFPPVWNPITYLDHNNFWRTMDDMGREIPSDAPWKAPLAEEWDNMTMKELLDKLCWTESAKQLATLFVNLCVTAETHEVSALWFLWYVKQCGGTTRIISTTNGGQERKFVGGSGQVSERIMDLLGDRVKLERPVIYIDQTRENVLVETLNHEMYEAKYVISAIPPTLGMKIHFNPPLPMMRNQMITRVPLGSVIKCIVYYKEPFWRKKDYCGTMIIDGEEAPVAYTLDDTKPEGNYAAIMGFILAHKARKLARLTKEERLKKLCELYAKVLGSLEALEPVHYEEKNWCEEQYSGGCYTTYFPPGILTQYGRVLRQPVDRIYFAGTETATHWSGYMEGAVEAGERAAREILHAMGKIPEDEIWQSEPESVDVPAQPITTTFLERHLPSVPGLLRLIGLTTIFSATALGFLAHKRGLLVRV", "assay": "Inhibition of recombinant human MAO-B using benzylamine as substrate preincubated for 15 mins"}, "[5]": {"molecular_target": "T1, Amine oxidase [flavin-containing] A", "assay": "Irreversible inhibition of recombinant human MAO-A using kynuramine as substrate assessed as residual activity at 100 times IC50 preincubated for 10 mins followed by 100 times compound dilution"}, "[6]": {"molecular_target": "T1, Amine oxidase [flavin-containing] A", "assay": "Inhibition of recombinant human MAO-A assessed as residual activity at 5 uM using 0.4 mM of kynuramine as substrate after 10 mins", "conditions": "read-out: Activity; call rule not given here"}, "[7]": {"molecular_target": "T1, Amine oxidase [flavin-containing] A", "assay": "Reversible inhibition of recombinant human MAO-A using kynuramine as substrate assessed as residual activity at 100 times IC50 preincubated for 10 mins followed by 100 times compound dilution"}, "[8]": {"molecular_target": "T1, Amine oxidase [flavin-containing] A", "assay": "Time-dependent inhibition of recombinant human MAO-A preincubated up to 30 mins followed by addition of 0.2 mM of kynuramine as substrate"}, "[9]": {"molecular_target": "T1, Amine oxidase [flavin-containing] A", "assay": "Competitive inhibition of recombinant human MAO-A using 0.01 to 0.5 mM kynuramine substrate by Lineweaver-Burk plot analysis"}, "[10]": {"molecular_target": "T2, Amine oxidase [flavin-containing] B", "assay": "Inhibition of recombinant human MAO-B using benzylamine as substrate at 40 uM after 15 mins relative to control", "conditions": "0.25 h"}, "[11]": {"molecular_target": "T1, Amine oxidase [flavin-containing] A", "assay": "Inhibition of recombinant human MAO-A assessed as residual activity at 5 uM using 0.2 mM kynuramine as substrate incubated for 10 mins", "conditions": "read-out: Activity"}, "[12]": {"molecular_target": "T1, Amine oxidase [flavin-containing] A", "assay": "Reversible inhibition of recombinant human MAO-A assessed as residual activity at 5 uM preincubated for 10 mins in presence of kynuramine substrate followed by re-addition of 0.2 mM of substrate measured after 10 mins", "conditions": "read-out: Activity"}}, "data": [{"smiles": "CNc1ccccc1-c1nc(C(=O)OC)cs1", "values": [{"measurement": "Ki", "setting": "[1]", "result": 1840, "unit": "nM"}]}, {"smiles": "Cn1ccc2c3ccccc3nc-2c1", "values": [{"measurement": "Ki", "setting": "[2]", "result": 1430, "unit": "nM"}]}, {"smiles": "O=C1c2ccccc2C(=O)c2c1ccc(O)c2O", "note": "[ATHRAQUINONES A]", "values": [{"measurement": "IC50", "setting": "[3]", "result": 30100, "unit": "nM"}, {"measurement": "IC50", "setting": "[4]", "result": "> 60000", "unit": "nM"}]}, {"smiles": "C#CCN(C)CCCOc1ccc(Cl)cc1Cl", "note": "[CLORGILINE]", "values": [{"measurement": "Activity", "setting": "[5]", "result": "24.9 to 47.9", "unit": "%"}]}, {"smiles": "O=C1c2ccccc2C(=O)c2c(O)c(O)cc(O)c21", "note": "[PURPURIN]", "values": [{"measurement": "activity at 5 µM", "setting": "[6]", "result": 54.4, "unit": "%"}, {"measurement": "IC50", "setting": "[3]", "result": 2500, "unit": "nM"}, {"measurement": "Activity", "setting": "[7]", "result": "63.9 to 67.2", "unit": "%"}, {"measurement": "TDI", "setting": "[8]", "result": "Active"}, {"measurement": "Ki", "setting": "[9]", "result": 422, "unit": "nM"}, {"measurement": "inhibition at 40 µM", "setting": "[10]", "result": 23.3, "unit": "%"}, {"measurement": "activity at 5 µM", "setting": "[11]", "result": 36.6, "unit": "%"}, {"measurement": "activity at 5 µM", "setting": "[12]", "result": 55.2, "unit": "%"}, {"measurement": "IC50", "setting": "[4]", "result": "> 40000", "unit": "nM"}]}]}
